PubChem BioAssay AID1508612

Test: passive permeability, PAMPA, ADME assay (AID 1508612)
Settings: pH 7.4, 30.0 min, 50.0 µM

Structure (SMILES)	Papp [×10⁻⁶ cm/s]
CCOc1ccc(CCNC(=O)c2cc3cccnc3n2Cc2cccc(C)c2)cc1OCC	> 1000
O=C1CCCC2=C1C(c1[nH]ncc1Cl)N=C(Nc1nc3ccc(F)cc3o1)N2 (stereo not drawn)	653
COc1cccc(C(=O)Nc2nc(-c3nnn(-c4cccc(Cl)c4C)c3C)ns2)c1	321
COC[C@@H]1CN(C(=O)c2n[nH]c3ccccc23)C[C@H]1c1nc(C)no1	66.8
CCCOC(c1cc2nccc(C(=O)O)c2[nH]1)c1ccccc1Cl (stereo not drawn)	12.9
O=C1Nc2ccccc2C1Cc1cc(Cl)c(O)c(Cl)c1 (stereo not drawn)	8.8
Cc1ccc(S(=O)(=O)Nc2cnccc2C(=O)Nc2nc(-c3cccc(C)c3)cs2)cc1	729
CCc1ccc(NC(=O)c2[nH]c(C)c(C(C)=O)c2C)cc1S(=O)(=O)Nc1cccc(C#N)c1	178
CCc1ccc(NC(=O)[C@H](Cc2c[nH]c3ccccc23)NC(=O)[C@@H]2Cc3ccccc3CN2)cc1	111
O=C(O)Cn1c(C(=O)Nc2nc(-c3ccccc3Cl)cs2)cc2ccccc21	21.5
CCOc1ccc(CCNC(=O)c2cc3sccc3n2Cc2ccncc2)cc1OCC	> 1000
NC(=O)C1CCN(c2nc(-c3ccc(Oc4ccccc4)cc3)cs2)CC1	953
Fc1cc(Nc2nc(-c3ccncc3)nc3ccccc23)ccc1-c1cccc(C(F)(F)F)c1	16.8
CC1CCc2cc(F)ccc2N1C(=O)CSc1nnc2c(n1)[nH]c1ccccc12 (stereo not drawn)	> 1000
COc1ccc(Cn2c(C(=O)O)c(CNCc3ccco3)c3ccc(C)cc32)cc1	654
CCc1cccc(NS(=O)(=O)c2ccc3c(c2)CC(C)N3C(=O)C2CC2)c1 (stereo not drawn)	> 1000
Cc1cccc(N2CCN(C(=O)Cn3ncc4c3-c3ccccc3OC4)CC2)c1C	676
COCCOc1cnc2ccn([C@H](C)c3nnc4c(F)cc(-c5cnn(C)c5)cn34)c(=O)c2c1	15.1
COC(=O)c1ccccc1NC(=O)c1ccccc1OC(F)F	> 1000
CN(C)c1cccc(-c2c3c(=O)n(-c4ccccc4Cl)[nH]c3cc(=O)n2C)c1	13.9
O=C(O)c1ccc(Nc2nc(-c3cc4ccccc4oc3=O)cs2)cc1O	8.62
CC(=O)N1CCN(c2nc(-c3ccc(Br)cc3)cs2)CC1	995
O=C1Nc2ccc(I)cc2C1=Cc1cc(Br)c(O)c(Br)c1	150
CN(Cc1cnc2nc(N)nc(N)c2n1)c1ccc(C(=O)N[C@@H](CCC(=O)O)C(=O)O)cc1	5.39
COc1cccc(Cn2c(=O)n(-c3cccc(Cl)c3C)c(=O)c3c4c(sc32)CN(C(C)=O)CC4)c1	> 1000
O=C(NCC1CCOCC1)C1CC(=O)N(c2n[nH]c3cc(Br)ccc23)C1 (stereo not drawn)	16.1
COC(=O)[C@H](Cc1ccc(O[S+](=O)([O-])c2cccc3cnccc23)cc1)N[S+](=O)([O-])c1ccc2cnccc2c1	> 1000

Structure (SMILES)	Papp [×10⁻⁶ cm/s]
Brc1ccc(-c2csc(N3CCCCC3)n2)cc1	111
CC(C)c1nc2oc3c(NCCN(C)C)ncnc3c2c2c1COC(C)(C)C2	> 1000
O=C(Nc1ccc2oc(-c3ccccc3F)nc2c1)c1ccc([N+](=O)[O-])o1	38.4
Cn1cncc1[C@@](N)(c1ccc(Cl)cc1)c1ccc2c(c1)c(-c1cccc(Cl)c1)cc(=O)n2C	> 1000
COc1ccc(-c2nc(CS(=O)CC(=O)N3CCC4(CC3)OCCO4)c(C)o2)cc1 (stereo not drawn)	91.7
NC(=O)N1CCCC(C(=O)N2CCCN(c3ccc(F)cc3)CC2)C1 (stereo not drawn)	111
O=C(Oc1ccc[nH]c1=O)c1cc([N+](=O)[O-])cc([N+](=O)[O-])c1	16.2
CCCCOC(=O)c1ccnc2cc(C(OCCN3CCCCC3)c3ccccc3Cl)sc12 (stereo not drawn)	828
CNc1nc2c(s1)C(c1ccc(Cl)cc1)CC(=O)N2 (stereo not drawn)	308
COc1ccc2oc(NC3=NC(c4[nH]ncc4Cl)C4=C(CCCC4=O)N3)nc2c1 (stereo not drawn)	706
Cc1ccccc1C(=O)N1CCc2cc(N3CCC(NC(=O)Cc4ccccc4)C3)ccc21 (stereo not drawn)	783
NC1(c2ccccc2Cl)CCCCC1=O (stereo not drawn)	62
COc1ccc(NC(=O)c2[nH]c(C)c(C(C)=O)c2C)cc1	377
CCOc1ccc(-c2cn3c(n2)sc2cc(C(=O)NCCCN(CC)CC)ccc23)cc1	> 1000
Cc1ccc(C)c(CN2C(=O)c3ccccc3S(=O)c3ccc(C(=O)N4CCN(c5ccccc5F)CC4)cc32)c1 (stereo not drawn)	> 1000
COc1nccc(-c2nc(Nc3ccc(F)c(F)c3)c3ccccc3n2)c1OC	> 1000
Cc1ccccc1C(=O)N1CCc2cc(-n3cc(NC(=O)Cc4ccccc4)cn3)ccc21	82.6
Fc1cccc(-c2ccc(Nc3nc(-c4ccncc4)nc4ccccc34)cc2F)c1	49
Cc1nsc(N)c1C(=O)N(C)CCOc1ccccc1Cl	389
CCOC(=O)c1ccc(-c2ccc3ncnc(NCCc4cnc[nH]4)c3c2)o1	> 1000
CCCc1ccc(C(=O)NC(=O)c2ccccc2O)cc1	< 1
CN(C)CCN1C(=O)c2cccc3cc(N)cc(c23)C1=O	339
COC(=O)c1ccc(Nc2nc(-c3ccncc3)nc3ccccc23)cc1OC	676
O=C(Cc1cccs1)NCc1nnc2ccc(-c3ccccc3)nn12	226
NC(=O)C1CCN(c2nc(-c3ccc(C(F)(F)F)cc3)cs2)CC1	292
CCOC(=O)c1c(NC(=O)CN2CCCCC2)sc2c1CCN(C(=O)OCC)C2	> 1000
